Source: US20240245691A1 (Sitryx Therapeutics Limited, priority 2021, published 2024)
Read-outs that look alike come from different tables or passages of the source.

Tests used:
IL-6 = assay: THP-1 AlphaLISA IL-6 cytokine assay (differentiated THP-1 cells); assay type: cell-based
Method: (§1) Measuring Inhibitory Effects on IL-1V Cytokine and IL-6 Output from THP-1s
(§2) The cytokine inhibition profiles of compounds of formula (I) were determined in a differentiated THP-1 cell assay. All assays were performed in RPMI-1640 growth medium (Gibco), supplemented with 10% fetal bovine serum (FBS; Gibco), 1% penicillin-streptomycin and 1% sodium pyruvate unless specified otherwise. The IL-1β and IL-6 cytokine inhibition assays were run in a background of differentiated THP-1 cells as described below. All reagents described were from Sigma-Aldrich unless specified otherwise. Compounds were prepared as 10 mM DMSO stocks.
(§3) THP-1 cells were expanded as a suspension up to 80% confluence in appropriate growth medium. Cells were harvested, suspended, and treated with an appropriate concentration of phorbol 12-myristate 13-acetate (PMA) over a 72 hr period (37° C./5% CO2).
(§4) Following 72 hrs of THP-1 cell incubation, cellular medium was removed and replaced with fresh growth media containing 1% of FBS. Working concentrations of compounds were prepared separately in 10% FBS treated growth medium and pre-incubated with the cells for 30 minutes (37° C./5% CO2). Following the 30 minute compound pre-incubation, THP-1s were treated with an appropriate concentration of LPS and the THP-1s were subsequently incubated for a 24 hr period (37° C./5% CO2). An appropriate final concentration of Nigericin was then dispensed into the THP-1 plates and incubated for 1 hour (37° C./5% CO2) before THP-1 supernatants were harvested and collected in separate polypropylene 96-well holding plates.
(§5) Reagents from each of the IL-1β and IL-6 commercial kits (Perkin Elmer) were prepared and run according to the manufacturer's instructions. Subsequently, fluorescence signal detection in a microplate reader was measured (EnVision® Multilabel Reader, Perkin Elmer).
(§6) Percentage inhibition was calculated per cytokine by normalising the sample data to the high and low controls used within each plate (+/−LPS respectively).
(§7) Dimethyl itaconate and 4-octyl itaconate were included as comparator compounds.

[1] = tested on: cryo-preserved hepatocytes; assay: Hepatocyte stability assay, human; assay type: in vitro ADME
Text: (§8) Defrosted cryo-preserved hepatocytes (viability>70%) were used to determine the metabolic stability of a compound via calculation of intrinsic clearance (CIint; a measure of the removal of a compound from the liver in the absence of blood flow and cell binding). Clearance data are particularly important for in vitro work as they can be used in combination with in vivo data to predict the half-life and oral bioavailability of a drug.
(§9) The metabolic stability in hepatocytes assay involved a time-dependent reaction using both positive and negative controls. The cells must be pre-incubated at 37° C. then spiked with test compound (and positive control); samples taken at pre-determined time intervals were analysed to monitor the change in concentration of the initial drug compound over 60 minutes. A buffer incubation reaction (with no hepatocytes present) acted as a negative control and two cocktail solutions, containing compounds with known high and low clearance values (verapamil/7-hydroxycoumarin and propranolol/diltiazem), acted as positive controls. • 1. The assay was run with a cell concentration of 0.5×10^6 cells/mL in Leibovitz buffer. • 2. All compounds and controls were run in duplicate. • 3. Compound concentration was 10 μM. • 4. All compounds and controls were incubated with both cells and buffer to show turnover is due to hepatic metabolism. • 5. All wells on the incubation plate had 326.7 μL of either cells or buffer added. • 6. Prior to assay, cell and buffer-only incubation plates were preincubated for 10 mins at 37° C. • 7. The assay was initiated by adding compounds, 3.3 μL of 1 mM in 10% DMSO-90% Buffer; final DMSO concentration is 0.1%. • 8. Samples were taken at regular timepoints (0, 5, 10, 20, 40, 60 min) until 60 mins. • 9. Sample volume was 40 μL and added to 160 μL of crash solvent (acetonitrile with internal standard) and stored on ice. • 10. At the end of the assay, the crash plates were centrifuged at 3500 rpm for 20 mins at 4° C. • 11. 80 μL of clear supernatant was removed and mixed with 80 μL of deionised water before being analysed by LC-MS/MS.
(§10) Raw LC-MS/MS data were exported to, and analysed in, Microsoft Excel for determination of intrinsic clearance. The percentage remaining of a compound was monitored using the peak area of the initial concentration as 100%. Intrinsic clearance and half-life values were calculated using a graph of the natural log of percentage remaining versus the time of reaction in minutes.
(§11) 4-Octyl itaconate was included as a comparator compound.

[2] = tested on: cryo-preserved hepatocytes; assay: Hepatocyte stability assay, mouse; assay type: in vitro ADME
Text: as §8, §9, §10, §11

IL-1β = assay: THP-1 AlphaLISA IL-1β cytokine assay (differentiated THP-1 cells); assay type: cell-based
Method: as §1, §2, §3, §4, §5, §6, §7

[3] = Hepatocyte stability assay, human; assay type: in vitro ADME; details: human, hepatocytes, T½
Text: as §8, §9, §10, §11

[4] = Hepatocyte stability assay, mouse; assay type: in vitro ADME; details: mouse, hepatocytes, T½
Text: as §8, §9, §10, §11

[5] = tested on: NRF2 (nuclear factor erythroid 2-related factor 2); assay: NRF2 +/-GSH activation assay (DiscoverX PathHunter NRF2 translocation kit, U2OS cells); assay type: cell-based; details: for Emax / EC50: Homo sapiens; for Emax: U2OS; for EC50: U2OS PathHunter cells, 6 hours
[6] = Homo sapiens, THP-1, differentiated THP-1 cells, LPS 24 hr then Nigericin 1 hour, read-out: IL-6 (IC50)
[7] = differentiated THP-1 cells, LPS 24 hr then Nigericin 1 hour, read-out: IL-1β (IC50)
[8] = differentiated THP-1 cells, LPS 24 hr then Nigericin 1 hour, read-out: IL-6 (IC50)
[9] = −GSH, normalised to dimethyl fumarate high control
[10] = Human hepatocytes, 10 μM compound, 60 min
[11] = Mouse hepatocytes, 10 μM compound, 60 min
[12] = Homo sapiens, THP-1, differentiated THP-1 cells, LPS 24 hr then Nigericin 1 hour, read-out: IL-1β (IC50)
[13] = Homo sapiens, THP-1, differentiated THP-1 cells, footnote a: data from repeated experiments, read-out: IL-1β (IC50), data from repeated experiments
[14] = −GSH, normalised to dimethyl fumarate high control, read-out: NRF2 activation Emax, −GSH
[15] = −GSH, read-out: NRF2 activation EC50, −GSH

## C=C(C(=O)O)C(C)C(=O)NC(C)(C)c1ccc(C(F)(F)F)cc1 (single isomer, unassigned) [Example 53, 3-methyl-2-methylene-4-oxo-4-((2-(4-(trifluoromethyl)phenyl)propan-2-yl)amino)butanoic acid]
IL-6; [6]
  IC50: > 100 µM
[1]; human, hepatocytes
  Clint: <3 μL min^−1 10^−6 cells
[1]; human, hepatocytes, 10 μM
  T½: >460 min
[2]; mouse, hepatocytes
  Clint: 5 μL min^−1 10^−6 cells
[2]; mouse, hepatocytes, 10 μM
  T½: 287 min
IL-1β; [7]
  IC50: 9.3 µM

## C=C(C(=O)O)C(C)C(=O)NC(C)(C)c1ccc(C(F)(F)F)cc1 (single isomer, unassigned; isomer 1) [Example 52, 3-methyl-2-methylene-4-oxo-4-((2-(4-(trifluoromethyl)phenyl)propan-2-yl)amino)butanoic acid ISOMER 1]
[3]
  half-life at 10 μM: > 460 min
[1]; human, hepatocytes
  Clint: <3 μL min^−1 10^−6 cells
[4]
  half-life at 10 μM: 431 min
[2]; mouse, hepatocytes, 10 μM
  T½: >460 min
IL-1β; [7]
  IC50: 18.7 µM

## C=C(C(=O)O)C(C)C(=O)N[C@@H](C)c1ccc(C(F)(F)F)cc1 (single isomer, unassigned; isomer 2) [Example 55]
IL-6; [8]
  IC50: > 31.6 µM
[1]; human, hepatocytes
  Clint: <3 μL min^−1 10^−6 cells
[1]; human, hepatocytes, 10 μM
  T½: >460 min
[2]; mouse, hepatocytes
  Clint: 3 μL min^−1 10^−6 cells
[2]; mouse, hepatocytes, 10 μM
  T½: 457 min
IL-1β; [7]
  IC50: 18.9 µM

## C=C(CC(=O)OCCCCCCCC)C(=O)O [4-octyl itaconate, 4-Octyl itaconate, reference compound]
IL-6; [8]
  IC50: 20.3 µM
[5]; +GSH, normalised to dimethyl fumarate high control
  NRF2 activation Emax, +GSH: 148%
[5]; [9]
  NRF2 activation Emax, −GSH: 165%
[1]; [10]
  Clint: 401 μL min^−1 10^−6 cells
  T½: 4 min
[2]; [11]
  Clint: 351 μL min^−1 10^−6 cells
  T½: 4 min
IL-1β; [7]
  IC50: 38.3 µM

## C=C(CC(=O)NCc1ccc(C(F)(F)F)cc1)C(=O)O [Example 6, 2-methylene-4-oxo-4-((4-(trifluoromethyl)benzyl)amino)butanoic acid]
IL-6; [6]
  IC50: > 100 µM
IL-1β; [12]
  IC50: 25.3 µM

## C=C(CC(=O)N[C@@H](CC)c1ccc(C(F)(F)F)cc1)C(=O)O [Example 8, (S)-2-methylene-4-oxo-4-((1-(4-(trifluoromethyl)phenyl)propyl)amino)butanoic acid]
IL-6; [6]
  IC50: > 100 µM
IL-1β; [12]
  IC50: 43.5 µM

## C=C(CC(=O)N[C@@H](CO)c1ccc(C(F)(F)F)cc1)C(=O)O [Example 12, (R)-4-((2-hydroxy-1-(4-(trifluoromethyl)phenyl)ethyl)amino)-2-methylene-4-oxobutanoic acid]
IL-6; [6]
  IC50: > 100 µM
IL-1β; [12]
  IC50: 26.6 µM
IL-1β; [13]
  IC50: 35.1 µM

## C=C(CC(=O)N[C@@H](C)c1ccc(Cl)cc1)C(=O)O [Example 15, (S)-4-((1-(4-chlorophenyl)ethyl)amino)-2-methylene-4-oxobutanoic acid]
IL-6; [6]
  IC50: > 61.1 µM
IL-1β; [12]
  IC50: 33.7 µM
IL-1β; [13]
  IC50: 32.6 µM

## C=C(CC(=O)N[C@@H](C)c1ccc(C(F)F)cc1)C(=O)O [Example 18, (S)-4-((1-(4-(difluoromethyl)phenyl)ethyl)amino)-2-methylene-4-oxobutanoic acid]
IL-6; [6]
  IC50: > 31.6 µM
IL-1β; [12]
  IC50: 56 µM

## C=C(CC(=O)NC(c1ccc(C(F)(F)F)cc1)C1CC1)C(=O)O (centres unmarked) [Example 23, 4-((cyclopropyl(4-(trifluoromethyl)phenyl)methyl)amino)-2-methylene-4-oxobutanoic acid]
IL-6; [8]
  IC50: > 100 µM
[1]; human, hepatocytes
  Clint: <3 μL min^−1 10^−6 cells
[1]; human, hepatocytes, 10 μM
  T½: >460 min
[2]; mouse, hepatocytes
  Clint: 4 μL min^−1 10^−6 cells
[2]; mouse, hepatocytes, 10 μM
  T½: 355 min
IL-1β; [7]
  IC50: 13.4 µM

## C=C(CC(=O)N[C@@H](C)c1ccc(C(F)(F)F)cc1)C(=O)OCCNS(C)(=O)=O [Example 25, 2-(methylsulfonamido)ethyl (S)-2-methylene-4-oxo-4-((1-(4-(trifluoromethyl)phenyl)ethyl)amino)butanoate]
[3]
  half-life at 10 μM: 70 min
[1]; human, hepatocytes
  Clint: 21 μL min^−1 10^−6 cells
[4]
  half-life at 10 μM: 11 min
[2]; mouse, hepatocytes
  Clint: 153 μL min^−1 10^−6 cells
IL-1β; [12]
  IC50: 4.1 µM

## C=C(CC(=O)N[C@@H](C)c1ccc(C(F)(F)F)cn1)C(=O)OC1CCN(C(C)=O)CC1 [Example 35, 1-acetylpiperidin-4-yl (S)-2-methylene-4-oxo-4-((1-(5-(trifluoromethyl)pyridin-2-yl)ethyl)amino)butanoate]
IL-6; [6]
  IC50: 11.9 µM
IL-1β; [12]
  IC50: 42.7 µM

## C=C(CC(=O)N[C@@H](C)c1ccc(C(F)(F)F)cn1)C(=O)OC1CN(C(C)=O)C1 [Example 36, 1-acetylazetidin-3-yl (S)-2-methylene-4-oxo-4-((1-(5-(trifluoromethyl)pyridin-2-yl)ethyl)amino)butanoate]
IL-6; [6]
  IC50: > 100 µM
[5]; +GSH, normalised to dimethyl fumarate high control, read-out: NRF2 activation Emax, +GSH
  Emax: 25%
[5]; [14]
  Emax: 65%
[5]; +GSH, read-out: NRF2 activation EC50, +GSH
  EC50: > 100 µM
[5]; [15]
  EC50: 15.9 µM
[4]
  half-life at 10 μM: 22 min
[2]; mouse, hepatocytes
  Clint: 61 μL min^−1 10^−6 cells
IL-1β; [12]
  IC50: 3.9 µM

## C=C(CC(=O)N[C@@H](C)c1ccc(C(F)(F)F)nc1)C(=O)O [Example 38, (S)-2-methylene-4-oxo-4-((1-(6-(trifluoromethyl)pyridin-3-yl)ethyl)amino) butanoic acid]
IL-6; [6]
  IC50: > 100 µM
IL-1β; [12]
  IC50: 29.6 µM

## CC/C=C(\CC(=O)N[C@@H](C)c1ccc(C(F)(F)F)cc1)C(=O)O [Example 43, (S,E)-2-(2-oxo-2-((1-(4-(trifluoromethyl)phenyl)ethyl)amino)ethyl)pent-2-enoic acid]
[3]
  half-life at 10 μM: > 460 min
[1]; human, hepatocytes
  Clint: <3 μL min^−1 10^−6 cells
[4]
  half-life at 10 μM: 163 min
[2]; mouse, hepatocytes
  Clint: 9 μL min^−1 10^−6 cells
IL-1β; [12]
  IC50: 2.1 µM

## C=C(C(=O)O)C(C)C(=O)NC(C)(C)c1ccc(C(F)(F)F)cc1 (centres unmarked) [Example 51, 3-methyl-2-methylene-4-oxo-4-((2-(4-(trifluoromethyl)phenyl)propan-2-yl)amino)butanoic acid]
IL-6; Homo sapiens, THP-1, read-out: IL-6 (IC50)
  IC50: > 100 µM
[3]
  half-life at 10 μM: > 460 min
[1]; human, hepatocytes
  Clint: <3 μL min^−1 10^−6 cells
IL-1β; Homo sapiens, THP-1, read-out: IL-1β (IC50)
  IC50: 10.2 µM

## C=C(CC(=O)OC)C(=O)OC [dimethyl itaconate, Dimethyl itaconate, reference compound]
IL-6; [6]
  IC50: 100 µM
[5]; [14]
  Emax: 137%
[5]; [15]
  EC50: 21.4 µM
[5]; [9]
  NRF2 activation Emax, −GSH: 137%
IL-1β; [12]
  IC50: > 100 µM
